Experimental findings from patent US9636379B2, “Compositions and methods for treating pruritus” (Washington University, priority 2007, dated 2017) are described below.

Where no end group is shown, it is not given here.

Data set [1] relates to 5-HT fibers. Kind of data set: Morphine-induced scratching after 5,7-DHT. The data set is classed as in vivo, mice. The note with it: vs saline vehicle.
Excerpt: Repeated measures analysis of variance (ANOVA); *P<0.05, n=5-11.
Data set [2] deals with GRPR. The data set is classed as in vivo. To be noted: GRPR mutant mice compared to wild-type mice. From the text: All data are presented as means±s.e.m.
FIG. 17A-C depicts scratching behavior induced by i.d. injection of histamine, endothelin-1 or 5-HT in GRPR mutant (black bars) and wild-type mice (white bars).
To ascertain whether GRPR is required for itch sensation, we studied the effects of several pruritogenic agents in GRPR mutant mice and wild-type mice.

The test system of data set [3] is NMBR/GRPR. It is filed as in vivo. The note with it: NMBR/GRPR double knockout mice; for response to i.d. pruritogens: i.d. in 50 μl; for response to intrathecal bombesin-like peptides: GRP (1 nM), Bombesin (0.05 nM), NMB (2 nM). The method, then:
FIG. 44 depicts the itch behavior of NMBR/GRPR double knockout mice in response to 3 different bombesin-like peptides. […] GKO, GRPR mutant mice; DKO, NMBR/GRPR double KO mice.
(A), (C), (E), (G) and (I) are time course curve, while (B), (D), (F), (H) and (J) represent the total value comparisons from the same experiment. *p<0.05, **p<0.01; One-way ANOVA followed by Newman-Keuls post hoc test was used in all statistical analysis.
Histamine was injected i.d. in 50 μl at 20 μg/mouse. Compound 48/80 was injected i.d. in 50 μl at 20 μg/mouse. ET-1 was injected i.d. in 50 μl at 1 ng/mouse. […] Serotonin (5-HT) was injected i.d. in 50 μl at 1 1 nmol/μl.

The target in data set [4] is T1, NMBR (Mus musculus, UniProt O54799).
T1 construct: NMBR is expressed in the most superficial layer of the dorsal spinal cord; endogenous in cells; host or cells: living wild-type mice, spinal cord (intrathecal injection)
T1 sequence (O54799 1-390): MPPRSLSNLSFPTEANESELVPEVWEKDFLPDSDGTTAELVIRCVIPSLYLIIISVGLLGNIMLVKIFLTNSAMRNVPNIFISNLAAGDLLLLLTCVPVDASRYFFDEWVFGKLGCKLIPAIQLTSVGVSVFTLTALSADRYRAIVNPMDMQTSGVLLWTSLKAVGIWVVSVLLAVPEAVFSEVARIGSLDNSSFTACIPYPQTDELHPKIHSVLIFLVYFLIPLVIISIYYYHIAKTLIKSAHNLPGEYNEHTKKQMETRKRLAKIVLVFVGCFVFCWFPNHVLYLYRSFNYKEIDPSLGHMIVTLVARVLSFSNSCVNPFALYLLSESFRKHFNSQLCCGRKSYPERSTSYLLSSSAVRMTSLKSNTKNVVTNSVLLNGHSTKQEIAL
Kind of data set: Effect of NMBR antagonist on NMB-, GRP- and chloroquine-evoked scratching. It is filed as in vivo, mice. The method, then:
(B) Dose response experiment depicting the NMB-evoked scratching behavior in wild type mice measured over 30 minutes after injection with 1 and 2 nmol of PD168268.
(A) Number of scratches over time. (B) Comparison of cumulative number of scratches of the results shown in (A). PD168268 was injected at 2 nmol/mouse 10 min before GRP 1 nmol/mouse. p<0.01 (p=0.0072), t test, when the data in first 5 min was compared.
(A) Number of scratches over time. (B) Comparison of cumulative number of scratches of the results shown in (A). […] One-way ANOVA followed by Newman-Keuls post hoc test.

For data set [5], the target named is T2, VR1 vanilloid receptor (Mus musculus, UniProt Q704Y3).
The target in data set [6] is T2, VR1 vanilloid receptor. The data set is described as follows: Depletion of primary fibers by intrathecal resiniferatoxin (immunocytochemistry). The data set is classed as in vivo, mice. Also on record: An approximate 80% of GRP+ neurons express TRPV1, a vanilloid receptor important for detecting thermal and chemical stimuli in the DRGs; endogenous in cells; host or cells: living mice, TRPV1+ primary afferent fibers (intrathecal RTX). From the text: FIG. 32A-L depicts micrographs showing that peptidergic but not non-peptidergic fibers were depleted by resiniferatoxin (RTX) treatment. […] The IB4 positive non-peptidergic fibers remain the same after RTX treatment (C) compared with the control group (D). […] GRP+ fibers are almost lost in the RTX treated group (I) compared with the control group (J). TRPV1 staining is lost after RTX treatment (K) compared to the control group (L).
An approximate 80% of GRP+ neurons express TRPV1, a vanilloid receptor important for detecting thermal and chemical stimuli in the DRGs (FIG. 31). […] Non-peptidergic primary fibers labeled by IB4-FITC are normal (FIG. 32C, D). […] Motor function is not affected by the depletion of TRPV1+ primary fibers (FIG. 33B).
Mice were given resiniferatoxin (Sigma, 25 ng/5 ul) or vehicle intrathecally under isoflurane-induced anesthesia. The behavior was tested 3-5 days later.

Data set [7] concerns the target T3, GRPR (Mus musculus, UniProt P21729).
T3 construct: GRP acts through spinal GRPR to mediate the transmission of information that drives scratching behavior; endogenous in cells; host or cells: living mice (C57BL/6J / wild-type littermates), spinal dorsal horn neurons reached by intrathecal injection
Kind of data set: Scratching behavior after intrathecal injection of GRPR agonist GRP18-27. It is filed as in vivo, mice. The procedure:
(§1) FIG. 7A-E depicts graphs showing the effect of GRPR agonist and antagonist on scratching behavior. (A) Scratching behavior is monitored after intrathecal (i.t.) injection of GRP18-27 (0.03, 0.1 or 1.0 nmol/5 μl). GRP18-27 induced dose-dependent scratching behavior in wild-type mice (n=7; open circles). […] ANOVA; **P<0.01. […] ANOVA; *P<0.05.
(§2) To determine whether an activation of GRPR in the spinal cord may facilitate the transmission of itch signals, which would subsequently result in increased scratching behavior, the GRPR agonist GRP18-27 was intrathecally administered (Ladenheim et al., 1996).

Data set [8] deals with T3, GRPR. The data set is described as follows: Scratching induced by i.d. pruritogenic agents after i.t. GRPR antagonist. The data set is classed as in vivo, mice. To be noted: i.t. antagonist 10 min before i.d. injection of each pruritogenic agent; vs saline control.
Data set [9] concerns the target T3, GRPR. Also on record: species or system mice. The note with it: in vivo.
The target of data set [10] is T3, GRPR. The data set is classed as in vivo, mice.
Data set [11] deals with GRPR. Kind of data set: Scratching behavior after intrathecal injection of GRPR agonist GRP18-27. The data set is classed as in vivo, mice. The note with it: GRPR mutant mice compared with wild-type. The method, then: as §1, §2
[12] abbreviates: three days after i.t. 25 ng/5 μl.
[13] abbreviates: antagonist 1.0 nmol i.t. vs vehicle.

T2 sequence (Q704Y3 whole entry): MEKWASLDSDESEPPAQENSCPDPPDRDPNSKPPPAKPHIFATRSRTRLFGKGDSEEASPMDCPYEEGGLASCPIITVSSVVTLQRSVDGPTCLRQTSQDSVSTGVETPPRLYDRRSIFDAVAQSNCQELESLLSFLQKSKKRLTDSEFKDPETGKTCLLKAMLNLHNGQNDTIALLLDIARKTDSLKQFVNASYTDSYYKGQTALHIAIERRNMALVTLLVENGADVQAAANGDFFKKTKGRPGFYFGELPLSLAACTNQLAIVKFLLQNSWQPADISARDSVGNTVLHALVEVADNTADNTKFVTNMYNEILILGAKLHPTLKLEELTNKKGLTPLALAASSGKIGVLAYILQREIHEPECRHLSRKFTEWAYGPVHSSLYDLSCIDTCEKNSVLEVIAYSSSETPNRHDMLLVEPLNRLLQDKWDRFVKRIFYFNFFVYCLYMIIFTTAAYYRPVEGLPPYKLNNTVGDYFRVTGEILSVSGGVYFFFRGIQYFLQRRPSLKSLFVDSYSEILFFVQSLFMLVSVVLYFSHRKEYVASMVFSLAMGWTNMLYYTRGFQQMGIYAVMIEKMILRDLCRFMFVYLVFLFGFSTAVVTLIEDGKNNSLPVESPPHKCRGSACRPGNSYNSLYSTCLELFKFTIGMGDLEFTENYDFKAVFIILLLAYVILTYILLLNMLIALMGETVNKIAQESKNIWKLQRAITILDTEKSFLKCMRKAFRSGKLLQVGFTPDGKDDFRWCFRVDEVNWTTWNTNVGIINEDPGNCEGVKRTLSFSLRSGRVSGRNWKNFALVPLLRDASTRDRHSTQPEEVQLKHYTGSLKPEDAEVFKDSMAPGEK
T3 sequence (P21729 whole entry): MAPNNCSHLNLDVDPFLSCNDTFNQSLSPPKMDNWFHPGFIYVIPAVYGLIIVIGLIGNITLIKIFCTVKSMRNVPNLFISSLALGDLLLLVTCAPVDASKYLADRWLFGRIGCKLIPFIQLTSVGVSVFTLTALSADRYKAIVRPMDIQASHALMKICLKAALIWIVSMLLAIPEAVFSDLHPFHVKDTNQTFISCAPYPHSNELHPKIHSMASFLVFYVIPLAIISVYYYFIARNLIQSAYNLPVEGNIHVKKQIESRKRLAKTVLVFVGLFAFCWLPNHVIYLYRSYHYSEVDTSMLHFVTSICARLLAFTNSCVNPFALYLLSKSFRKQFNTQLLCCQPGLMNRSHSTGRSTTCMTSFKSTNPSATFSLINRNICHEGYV

As to `NCCc1c[nH]c2c(O)cc(O)cc12` [5,7-DHT], the morphine-induced scratching behavior entry in data set [1] is “reduces, but does not eliminate scratching behavior”.
For the compound `NCCc1c[nH]c2ccc(O)cc12` [5-HT, serotonin], in data set [2], the “scratching behavior induced by i.d. injection, GRPR mutant vs wild-type mice” value (“scratching behavior induced … vs wild-type mice” for short) is reported as “normal scratching behaviors”. Further, the “response to i.d. pruritogens” value in [3] is listed as “deficits”.
In the case of `C[C@@](Cc1c[nH]c2ccccc12)(NC(=O)Nc1ccc([N+](=O)[O-])cc1)C(=O)NCC1(c2ccccn2)CCCCC1` [PD168268], the GRP-induced scratching behaviors entry in data set [4] (2 nmol/mouse 10 min before GRP 1 nmol/mouse) is recorded as “inhibited”. Further, the NMB-induced scratching behaviors entry in [4] (i.t. 1 or 2 nM/mouse 10 minutes before 2 nM/mouse of NMB, wild type mice) was “inhibited”. Also, in data set [4] (i.t. 10 minutes before i.d. chloroquine 200 μg/mouse in 50 μL), the chloroquine-induced scratching behaviors result is listed as “inhibited”.
As for `CCN(CC)CCCC(C)Nc1ccnc2cc(Cl)ccc12` (stereo not shown) [chloroquine], in data set [3], the “response to i.d. pruritogens” value is on record as “deficits”.
As to `NCCc1c[nH]cn1` [histamine], in data set [2], the “scratching behavior induced … vs wild-type mice” value is “either not significantly affected or modestly reduced”. Besides, the “response to i.d. pruritogens” value in data set [3] is reported as “deficits”.
As for `C=C(C)[C@]12C[C@@H](C)[C@@]34O[C@](Cc5ccccc5)(O[C@@H]1[C@@H]3C=C(COC(=O)Cc1ccc(O)c(OC)c1)C[C@]1(O)C(=O)C(C)=C[C@@H]41)O2` [resiniferatoxin], in data set [5] (after RTX treatment), the “motor function (rotarod)” value is recorded as “not affected” and the tail-flick latency entry is on record as “significantly increased”. For the same compound, the morphine-induced scratching behavior result in data set [5] (mouse, in vivo) is “significantly reduced”. Further, the GRPR expression entry in data set [6] (after RTX treatment) is listed as “remains normal”. In data set [6] (setting [12]), the “GRP+ fibers” value was “almost depleted”, the “PKCγ (LIIi layer)” value is on record as “remains normal”, the TRPV1 signal entry is “almost lost” and the “non-peptidergic primary fibers labeled by IB4-FITC” value is on record as “normal”. In addition, the “peptidergic fibers labeled by CGRP” value in data set [6] (setting [12]) was “largely diminished”.
Turning to D-Phe-6-Bn(6-13)OMe, in [7] (i.t. antagonist 1.0 nmol/2.5 μl, GRP18-27 1.0 nmol/2.5 μl, vs vehicle), the GRP18-27-induced scratching behavior entry is “significantly inhibited”. In data set [8], the “scratching behavior induced by i.d. pruritogenic agents” value is “significant reduction of the scratching behavior”. For the same compound, in [9], the “scratching induced by intrathecal morphine” value is “significantly blocked”. For the same compound, in data set [10] (setting [13]), the mechanical thresholds result was “not significantly affected” and the tailflick latency result is on record as “comparable”. Besides, the “analgesic effect of intrathecal morphine” value in [10] (morphine 0.3 nmol/5 μl, antagonist 1.0 nmol, vs vehicle) is reported as “not significantly affected”.
For “GRP18-27: GRPR agonist, intrathecally administered”, the “scratching behavior after i.t. GRP18-27” value in [7] (wild-type mice, i.t. 0.03, 0.1 or 1.0 nmol/5 μl) is “increased scratching behavior was found in a dose-dependent manner”. In addition, in data set [11], the “number of scratching behaviors after i.t. GRP18-27” value is given as “significantly lower”.
As to “GRP: gastrin-releasing peptide, bombesin-like peptide given intrathecally (VPLPAGGGTVLTKMYPRGNHWAVGHLM; ends and bridges not checked; UniProt P07492 24-50, looked up)”, the “response to intrathecal bombesin-like peptides” value in data set [3] is recorded as “deficits”.
For SLIGRL-NH2, the “scratching behavior induced … vs wild-type mice” value in [2] is given as “significantly reduced”.
In the case of “endothelin-1: exerts its pruritic effect through ETA receptors”, in data set [2], the “scratching behavior induced … vs wild-type mice” value was “normal scratching behaviors”. In data set [3], the “response to i.d. pruritogens” value is on record as “deficits”.
For neuromedin B [NMB], the “response to intrathecal bombesin-like peptides” value in [3] is given as “deficits”.
